# Test system: Staphylococcus epidermidis ATCC 12228
# Assay: antimicrobial activity, MIC
# Format: cell-based
# Conditions: Staphylococcus epidermidis ATCC 12228
row,SMILES,MIC
1,"CCCOc1ccccc1C(=CSCc1ccccc1)n1ccnc1 (single isomer, unassigned) [Compound 3, 1-(2-n-propyloxyphenyl)-1-imidazolyl-2-benzylthioethylene]",3.12 µg/mL

# Test system: Trichophyton mentagrophytes IFO 5812
# Assay: antimicrobial activity, MIC
# Format: cell-based
# Conditions: Trichophyton mentagrophytes, IFO5812, Trichophyton mentagrophytes IFO 5812; read-out: MIC
row,SMILES,MIC
1,"CCCOc1ccccc1C(=CSCc1ccccc1)n1ccnc1 (single isomer, unassigned) [Compound 3, 1-(2-n-propyloxyphenyl)-1-imidazolyl-2-benzylthioethylene]",< 0.2 µg/mL

# Test system: Cladosporium fulvum IAM 5006
# Assay: antimicrobial activity, MIC
# Format: cell-based
# Conditions: Fulvia fulva, IAM5006, Cladosporium fulvum IAM 5006; read-out: MIC
row,SMILES,MIC
1,"CCCOc1ccccc1C(=CSCc1ccccc1)n1ccnc1 (single isomer, unassigned) [Compound 3, 1-(2-n-propyloxyphenyl)-1-imidazolyl-2-benzylthioethylene]",12.5 µg/mL

# Test system: Candida albicans NHL 4019
# Assay: antimicrobial activity, MIC
# Format: cell-based
# Conditions: Candida albicans, NHL4019, Candida albicans NHL 4019; read-out: MIC
row,SMILES,MIC
1,"CCCOc1ccccc1C(=CSCc1ccccc1)n1ccnc1 (single isomer, unassigned) [Compound 3, 1-(2-n-propyloxyphenyl)-1-imidazolyl-2-benzylthioethylene]",50 µg/mL

# Test system: Pyricularia oryzae IAM 5016
# Assay: microbe, parasite or virus in culture
# Format: cell-based
# Conditions: Pyricularia oryzae, IAM5016, Pyricularia oryzae IAM 5016
row,SMILES,MIC
1,"CCCOc1ccccc1C(=CSCc1ccccc1)n1ccnc1 (single isomer, unassigned) [Compound 3, 1-(2-n-propyloxyphenyl)-1-imidazolyl-2-benzylthioethylene]",< 0.2 µg/mL

# Test system: Staphylococcus aureus Terajima
# Assay: antimicrobial activity, MIC
# Format: cell-based
# Conditions: Staphylococcus aureus, read-out: MIC
row,SMILES,MIC
1,"CCCOc1ccccc1C(=CSCc1ccccc1)n1ccnc1 (single isomer, unassigned) [Compound 3, 1-(2-n-propyloxyphenyl)-1-imidazolyl-2-benzylthioethylene]",6.25 µg/mL

# Test system: Helminthosporium sesamum IAM 5012
# Assay: antimicrobial activity, MIC
# Format: cell-based
# Conditions: Helminthosporium, IAM5012, Helminthosporium sesamum IAM 5012; read-out: MIC
row,SMILES,MIC
1,"CCCOc1ccccc1C(=CSCc1ccccc1)n1ccnc1 (single isomer, unassigned) [Compound 3, 1-(2-n-propyloxyphenyl)-1-imidazolyl-2-benzylthioethylene]",< 0.2 µg/mL

# Test system: Aspergillus niger ATCC 9642
# Assay: antimicrobial activity, MIC
# Format: cell-based
# Conditions: Aspergillus niger ATCC 9642
row,SMILES,MIC
1,"CCCOc1ccccc1C(=CSCc1ccccc1)n1ccnc1 (single isomer, unassigned) [Compound 3, 1-(2-n-propyloxyphenyl)-1-imidazolyl-2-benzylthioethylene]",0.39 µg/mL

# Test system: Penicillium chrysogenum ATCC 6010
# Assay: antimicrobial activity, MIC
# Format: cell-based
# Conditions: Penicillium chrysogenum ATCC 6010
row,SMILES,MIC
1,"CCCOc1ccccc1C(=CSCc1ccccc1)n1ccnc1 (single isomer, unassigned) [Compound 3, 1-(2-n-propyloxyphenyl)-1-imidazolyl-2-benzylthioethylene]",50 µg/mL

# Test system: Debaryomyces kloeckeri IFO 0015
# Assay: antimicrobial activity, MIC
# Format: cell-based
# Conditions: IFO0015, read-out: MIC
row,SMILES,MIC
1,"CCCOc1ccccc1C(=CSCc1ccccc1)n1ccnc1 (single isomer, unassigned) [Compound 3, 1-(2-n-propyloxyphenyl)-1-imidazolyl-2-benzylthioethylene]",6.25 µg/mL

# Test system: Trichophyton rubrum NHL J
# Assay: antimicrobial activity, MIC
# Format: cell-based
# Conditions: Trichophyton rubrum, Trichophyton rubrum NHL J; read-out: MIC
row,SMILES,MIC
1,"CCCOc1ccccc1C(=CSCc1ccccc1)n1ccnc1 (single isomer, unassigned) [Compound 3, 1-(2-n-propyloxyphenyl)-1-imidazolyl-2-benzylthioethylene]",< 0.2 µg/mL

# Test system: Staphylococcus aureus FDA 209P
# Assay: antimicrobial activity, MIC
# Format: cell-based
# Conditions: Staphylococcus aureus, FDA209P, read-out: MIC
row,SMILES,MIC
1,"CCCOc1ccccc1C(=CSCc1ccccc1)n1ccnc1 (single isomer, unassigned) [Compound 3, 1-(2-n-propyloxyphenyl)-1-imidazolyl-2-benzylthioethylene]",12.5 µg/mL

# Test system: Saccharomyces ruxii 6507
# Assay: antimicrobial activity, MIC
# Format: cell-based
# Conditions: Saccharomyces ruxii 6507; read-out: MIC
row,SMILES,MIC
1,"CCCOc1ccccc1C(=CSCc1ccccc1)n1ccnc1 (single isomer, unassigned) [Compound 3, 1-(2-n-propyloxyphenyl)-1-imidazolyl-2-benzylthioethylene]",< 0.2 µg/mL

# Test system: Staphylococcus aureus Smith
# Assay: antimicrobial activity, MIC
# Format: cell-based
# Conditions: Staphylococcus aureus, read-out: MIC
row,SMILES,MIC
1,"CCCOc1ccccc1C(=CSCc1ccccc1)n1ccnc1 (single isomer, unassigned) [Compound 3, 1-(2-n-propyloxyphenyl)-1-imidazolyl-2-benzylthioethylene]",6.25 µg/mL

# Test system: Microsporum audounii IFO 6074
# Assay: antimicrobial activity, MIC
# Format: cell-based
# Conditions: Microsporum, IFO6074, Microsporum audounii IFO 6074; read-out: MIC
row,SMILES,MIC
1,"CCCOc1ccccc1C(=CSCc1ccccc1)n1ccnc1 (single isomer, unassigned) [Compound 3, 1-(2-n-propyloxyphenyl)-1-imidazolyl-2-benzylthioethylene]",< 0.2 µg/mL

# Test system: Trichophyton tonsurans IFO 5928
# Assay: antimicrobial activity, MIC
# Format: cell-based
# Conditions: Trichophyton tonsurans, IFO5928, Trichophyton tonsurans IFO 5928; read-out: MIC
row,SMILES,MIC
1,"CCCOc1ccccc1C(=CSCc1ccccc1)n1ccnc1 (single isomer, unassigned) [Compound 3, 1-(2-n-propyloxyphenyl)-1-imidazolyl-2-benzylthioethylene]",< 0.2 µg/mL

# Test system: Candida albicans Yu-1200
# Assay: antimicrobial activity, MIC
# Format: cell-based
# Conditions: YU1200, read-out: MIC
row,SMILES,MIC
1,"CCCOc1ccccc1C(=CSCc1ccccc1)n1ccnc1 (single isomer, unassigned) [Compound 3, 1-(2-n-propyloxyphenyl)-1-imidazolyl-2-benzylthioethylene]",> 100 µg/mL

# Test system: Gibberella fujikuroi IAM 8046
# Assay: antimicrobial activity, MIC
# Format: cell-based
# Conditions: Gibberella fujikuroi IAM 8046
row,SMILES,MIC
1,"CCCOc1ccccc1C(=CSCc1ccccc1)n1ccnc1 (single isomer, unassigned) [Compound 3, 1-(2-n-propyloxyphenyl)-1-imidazolyl-2-benzylthioethylene]",25 µg/mL

# Test system: Sarcina lutea ATCC 9341
# Assay: antimicrobial activity, MIC
# Format: cell-based
# Conditions: Sarcina lutea ATCC 9341
row,SMILES,MIC
1,"CCCOc1ccccc1C(=CSCc1ccccc1)n1ccnc1 (single isomer, unassigned) [Compound 3, 1-(2-n-propyloxyphenyl)-1-imidazolyl-2-benzylthioethylene]",1.56 µg/mL

# Test system: Aspergillus oryzae IMF 4014
# Assay: antimicrobial activity, MIC
# Format: cell-based
# Conditions: Aspergillus oryzae IMF 4014
row,SMILES,MIC
1,"CCCOc1ccccc1C(=CSCc1ccccc1)n1ccnc1 (single isomer, unassigned) [Compound 3, 1-(2-n-propyloxyphenyl)-1-imidazolyl-2-benzylthioethylene]",6.25 µg/mL

# Test system: Epidermophyton floccosum IFO 9045
# Assay: antimicrobial activity, MIC
# Format: cell-based
# Conditions: Epidermophyton floccosum, IFO9045, Epidermophyton floccosum IFO 9045; read-out: MIC
row,SMILES,MIC
1,"CCCOc1ccccc1C(=CSCc1ccccc1)n1ccnc1 (single isomer, unassigned) [Compound 3, 1-(2-n-propyloxyphenyl)-1-imidazolyl-2-benzylthioethylene]",3.12 µg/mL

# Test system: Fusarium moniliforme IAM 5062
# Assay: antimicrobial activity, MIC
# Format: cell-based
# Conditions: Fusarium moniliforme IAM 5062
row,SMILES,MIC
1,"CCCOc1ccccc1C(=CSCc1ccccc1)n1ccnc1 (single isomer, unassigned) [Compound 3, 1-(2-n-propyloxyphenyl)-1-imidazolyl-2-benzylthioethylene]",> 100 µg/mL

# Test system: Bacillus subtilis ATCC 6633
# Assay: antimicrobial activity, MIC
# Format: cell-based
# Conditions: Bacillus subtilis ATCC 6633
row,SMILES,MIC
1,"CCCOc1ccccc1C(=CSCc1ccccc1)n1ccnc1 (single isomer, unassigned) [Compound 3, 1-(2-n-propyloxyphenyl)-1-imidazolyl-2-benzylthioethylene]",1.56 µg/mL

# Test system: Saccharomyces cerevisiae ATCC 9763
# Assay: antimicrobial activity, MIC
# Format: cell-based
# Conditions: Saccharomyces cerevisiae, ATCC9763, Saccharomyces cerevisiae ATCC 9763; read-out: MIC
row,SMILES,MIC
1,"CCCOc1ccccc1C(=CSCc1ccccc1)n1ccnc1 (single isomer, unassigned) [Compound 3, 1-(2-n-propyloxyphenyl)-1-imidazolyl-2-benzylthioethylene]",< 0.2 µg/mL

# Test system: Microsporum gypseum IFO 8231
# Assay: antimicrobial activity, MIC
# Format: cell-based
# Conditions: Nannizzia gypsea, IFO8231, Microsporum gypseum IFO 8231; read-out: MIC
row,SMILES,MIC
1,"CCCOc1ccccc1C(=CSCc1ccccc1)n1ccnc1 (single isomer, unassigned) [Compound 3, 1-(2-n-propyloxyphenyl)-1-imidazolyl-2-benzylthioethylene]",< 0.2 µg/mL

# Test system: Streptococcus faecalis IFO 12964
# Assay: antimicrobial activity, MIC
# Format: cell-based
# Conditions: Enterococcus faecalis, IFO12964, Streptococcus faecalis IFO 12964; read-out: MIC
row,SMILES,MIC
1,"CCCOc1ccccc1C(=CSCc1ccccc1)n1ccnc1 (single isomer, unassigned) [Compound 3, 1-(2-n-propyloxyphenyl)-1-imidazolyl-2-benzylthioethylene]",6.25 µg/mL

# Test system: Micrococcus lysodeixticus IFO 3333
# Assay: antimicrobial activity, MIC
# Format: cell-based
# Conditions: Micrococcus lysodeixticus IFO 3333
row,SMILES,MIC
1,"CCCOc1ccccc1C(=CSCc1ccccc1)n1ccnc1 (single isomer, unassigned) [Compound 3, 1-(2-n-propyloxyphenyl)-1-imidazolyl-2-benzylthioethylene]",0.78 µg/mL

# Test system: Trichophyton mentagrophytes QM 248
# Assay: antimicrobial activity, MIC
# Format: cell-based
# Conditions: Trichophyton mentagrophytes, QM248, Trichophyton mentagrophytes QM 248; read-out: MIC
row,SMILES,MIC
1,"CCCOc1ccccc1C(=CSCc1ccccc1)n1ccnc1 (single isomer, unassigned) [Compound 3, 1-(2-n-propyloxyphenyl)-1-imidazolyl-2-benzylthioethylene]",< 0.2 µg/mL

# Test system: Microsporum cookei IFO 8303
# Assay: antimicrobial activity, MIC
# Format: cell-based
# Conditions: Microsporum cookei IFO 8303
row,SMILES,MIC
1,"CCCOc1ccccc1C(=CSCc1ccccc1)n1ccnc1 (single isomer, unassigned) [Compound 3, 1-(2-n-propyloxyphenyl)-1-imidazolyl-2-benzylthioethylene]",6.25 µg/mL

# Source: patent US4740601A, “Imidazole derivatives having antimicrobial activities” (SS Pharmaceutical Co., Ltd., priority 1985, dated 1988)
